Measurements reported in patent publication US20170280720A1, “ARGININE […] INHIBITORS AND USES THEREOF” (EPIZYME, INC., priority 2014, published 2017).

target: T1, human PRMT1 (Homo sapiens, UniProt Q99873); assay: PRMT1 biochemical assay (3H-SAM Flashplate, peptide substrate); settings: read-out: PRMT1_ IC50
T1 construct: GST-tagged PRMT1; made in house; host or cells: High Five insect cells (baculovirus, pFastBacI)
In short: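 FLAG-tagged full-length human PRMT1 (0.5 nM, GST-tagged, insect-cell expressed) preincubated 30 min at RT with compound, then biotinylated histone H4 36-50 peptide (20 nM) plus 200 nM 3H-SAM and 1.5 uM SAM in Bicine pH 7.6, 2% DMSO. 3H-methylated peptide captured on streptavidin Flashplate; IC50 from 3/4-parameter fit.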

T1 sequence (Q99873 with tags, fused parts or gaps): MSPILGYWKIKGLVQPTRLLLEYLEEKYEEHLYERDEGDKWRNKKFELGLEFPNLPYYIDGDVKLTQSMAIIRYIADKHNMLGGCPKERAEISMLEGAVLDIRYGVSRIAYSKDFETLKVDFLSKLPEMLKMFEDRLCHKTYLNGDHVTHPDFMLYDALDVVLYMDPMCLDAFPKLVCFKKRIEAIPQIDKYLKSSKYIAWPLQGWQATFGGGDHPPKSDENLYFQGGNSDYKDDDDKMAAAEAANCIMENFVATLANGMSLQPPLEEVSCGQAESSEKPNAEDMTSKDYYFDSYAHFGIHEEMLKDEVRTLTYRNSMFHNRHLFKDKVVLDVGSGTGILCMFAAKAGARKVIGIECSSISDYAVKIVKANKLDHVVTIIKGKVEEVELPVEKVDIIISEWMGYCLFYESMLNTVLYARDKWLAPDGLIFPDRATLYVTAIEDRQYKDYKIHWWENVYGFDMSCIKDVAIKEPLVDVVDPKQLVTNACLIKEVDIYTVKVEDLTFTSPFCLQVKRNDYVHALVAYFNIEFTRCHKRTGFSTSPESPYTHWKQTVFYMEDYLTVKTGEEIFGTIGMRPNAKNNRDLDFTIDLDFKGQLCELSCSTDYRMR

IC50 [nM]	SMILES
1600	CC(C)n1ncc2c(C(=O)NCc3ccncc3)cc(-c3cccc(CNCCN)c3)nc21 [Compound 150]
1660	CNCCN(C)Cc1cccc(-c2cc(N)c3cnn(C(C)C)c3n2)c1 [Compound 151]
2300	CC(C)n1ncc2c(C(=O)NCc3ccccc3)cc(-c3cccc(CNCCN)c3)nc21 [Compound 155]
2410	NCCNCc1ccc(-c2cnc3c(c2)CCC(=O)N3)cc1 [Compound 156]
2430	NCCNCc1ccc(-c2ccc3ncn(C4CCNCC4)c3c2)cc1 [Compound 157]
4170	CCS(=O)(=O)Nc1cc(-c2cccc(CN(C)CCNC)c2)nc2c1cnn2C(C)C [Compound 161]
4320	CC(C)n1ncc2c(C(=O)NCC3CCN(C)CC3)cc(-c3cccc(CN(C)CCN(C)C)c3)nc21 [Compound 162]
10000	CNCCN(C)Cc1cccc(-c2cc(NS(C)(=O)=O)c3cnn(C(C)C)c3n2)c1 [Compound 169]
512	CNCCN(C)Cc1cccc(-c2cnc3c(c2)OCC(=O)N3)c1 [Compound 355]
755	COc1cccc(CNC(=O)c2cncc(-c3ccc(CNCCN)cc3)c2)c1 [Compound 356]
78.5	NCCNCc1ccc(-c2cnc3c(c2)OCC(=O)N3)cc1 [Compound 358]

The remaining lines, values behind:

SMILES	IC50 [nM]
N#Cc1cccc(Cn2cnc3ccc(-c4ccc(CNCCN)cc4)cc32)c1 [Compound 145]	1270
CC(C)n1ncc2c(C(=O)NC3CCOCC3)cc(-c3cccc(CN(C)CCN)c3)nc21 [Compound 148]	1480
CC(C)n1ncc2c(C(=O)N3CCCCC3)cc(-c3cccc(CNCCN)c3)nc21 [Compound 153]	1710
CNCCN(C)Cc1cccc(-c2cc(OCC(F)(F)F)c3cnn(C(C)C)c3n2)c1 [Compound 154]	2290
CN(CCN)Cc1cccc(-c2cc(C(=O)NC3CCOCC3)c3cnn(C)c3n2)c1 [Compound 158]	3020
CC(C)n1ncc2c(C(=O)NCc3ccccc3F)cc(-c3cccc(CNCCN)c3)nc21 [Compound 159]	3140
CC(C)n1ncc2c(C(=O)N[C@@H](C)c3ccccc3)cc(-c3cccc(CNCCN)c3)nc21 [Compound 160]	4100
CC(C)n1ncc2c(N3CCOCC3)cc(-c3cccc(CN(C)CCNC4CC4)c3)nc21 [Compound 163]	4410
CNCCN(C)Cc1cccc(-c2cc(NS(=O)(=O)C(F)(F)F)c3cnn(C(C)C)c3n2)c1 [Compound 164]	4500
CC(C)n1cnc2ccc(-c3ccc(CNCCN)cc3)cc21 [Compound 166]	5090
CC(C)n1ncc2c(C(=O)NCC3CCOCC3)cc(-c3cccc(CN(C)CCNC4CC4)c3)nc21 [Compound 167]	5890
CC(C)n1ncc2c(C(=O)NCc3c(F)cccc3F)cc(-c3cccc(CNCCN)c3)nc21 [Compound 168]	7810
CNCCN(C)Cc1cccc(-c2cc(NS(C)(=O)=O)c3cnn(C(C)C)c3n2)c1 [Compound 170]	10000
